Measured values: ChEMBL document CHEMBL6114983 (Bioorg Med Chem, 2025)
pIC50: −log10 of the molar value.

Target: Glutaminyl-peptide cyclotransferase (Homo sapiens, UniProt Q16769)
Sequence (Q16769 whole entry): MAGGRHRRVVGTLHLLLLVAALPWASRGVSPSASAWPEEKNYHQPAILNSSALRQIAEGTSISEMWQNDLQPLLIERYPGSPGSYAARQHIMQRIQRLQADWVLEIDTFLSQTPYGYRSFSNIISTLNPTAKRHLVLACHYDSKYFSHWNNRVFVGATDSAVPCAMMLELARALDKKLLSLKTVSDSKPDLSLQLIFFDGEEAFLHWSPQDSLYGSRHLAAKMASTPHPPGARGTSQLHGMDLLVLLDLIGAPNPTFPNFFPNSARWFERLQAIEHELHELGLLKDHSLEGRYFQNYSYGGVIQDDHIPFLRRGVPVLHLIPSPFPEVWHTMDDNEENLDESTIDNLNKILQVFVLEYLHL

**Q.** `COc1ccc(N(C(=S)NCCCn2cncc2C)C2CCN(C)CC2)cc1OC` was tested. Which pIC50 did it give?
**A.** 8.47
